# Experiments:
# α1 -receptor = experiment: Receptor binding study, displacement of tritium-labeled prazosin in brain membrane homogenates; conditions: mean of 4-6 experiments, read-out: α1 -receptor affinity IC50
# Description: 1. The affinities of the compounds were studied in receptor binding studies using prazosin as tritium-labeled ligand. The investigations were performed in brain membrane homogenates. The affinity was expressed as IC50 -value (the IC50 -value is the concentration in nmol/l which displaces 50% of the labeled ligand). Low values indicate a high affinity.
# [1] = tested on: conscious spontaneously hypertensive rats; experiment: Blood pressure lowering activity in conscious spontaneously hypertensive rats; assay type: in vivo, rat; conditions: 10 mg/kg i.v.; 15 min after administration; mean arterial blood pressure; mean of 4-6 experiments
# Description: 3. The blood pressure lowering activity of the test compounds was investigated in conscious spontaneously hypertensive rats. The blood pressure response to the test compounds was evaluated by means of continuous monitoring of the mean arterial blood pressure via an implanted catheter, electromagnetic transducer and a direct recording system. The test compounds were injected at a dose of 10 mg/kg i.v. and the blood pressure response was determined 15 min after administration.
# [2] = tested on: isolated rat aortic strips; experiment: In vitro vasorelaxation of isolated rat aortic strips precontracted with noradrenaline; conditions: 25 min, 3 × 10^-6 M, noradrenaline 10^-5 M precontraction, end of 25 min incubation, mean of 4-6 experiments
# Description: 2. In vitro investigations were performed on isolated rat aortic strips precontracted with noradrenaline (10^-5 M). The test compounds were added to the bath solution at concentrations of 3×10^-6 M in order to test for vasorelaxation. The relaxation was evaluated at the end of an incubation period of 25 min. High values indicate a strong vasorelaxing effect.
# [3] = tested on: anaphylactoid reactions in rats induced by dextran; conditions: in words, U.S. Pat. No. 3,997,666; cited from earlier work
# [4] = in words; U.S. Pat. No. 3,997,666; cited from earlier work
IC50 (α1 -receptor) [nM],SMILES,blood pressure decrease [1] [mmHg],inhibition at 3 µM [2] [%],inhibition of anaphylactoid reactions induced by dextran [3],antihypertensive properties [4]
52.7,"COc1ccccc1N1CCN(CC(O)COc2ccc(O)c3ccccc23)CC1 (centres unmarked) [Example 3, 1-(2-Methoxyphenyl)-4-[3-(4-hydroxynaphth-1-yloxy)-2-hydroxypropyl]-piperazine]",48,85,,
235,"COc1ccccc1N1CCN(CC(O)COc2cccc3ccccc23)CC1 (centres unmarked) [naftopidil, 1(2-methoxyphenyl)-4-/3-(naphth-1-yloxy)-2-hydroxypropyl/-piperazine]",31,53,inhibits anaphylactoid reactions in rats induced by dextran,possesses antihypertensive properties
